Each structure is given as a SMILES string.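 Exposure lasted 48 hours, with cells grown in 96-well plates and compounds tested at five concentrations. GI50 marks 50% less growth. TGI denotes the concentration required for complete inhibition of growth.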 Where a SMILES comes first, the peptide text is derived from it. [ ]: non-standard residue; d: D form. The star is where a group is joined. ξ: configuration not given here. Propanoyl(3-(4-MeO-Ph)) = COc1ccc(CCC(=O)*)cc1; Thr(3ξ) = CC(O)[C@H](N)C(=O)O; dNMeL = CN[C@H](CC(C)C)C(=O)O; OBn = c1ccc(CO*)cc1; ξLac = CC(O)C(=O)O A value given as a limit tells only on which side of the number the result lay.

Common to all, as to assay: growth of human tumour cells (NCI), 48 h
Assay [1] has as its system A498 renal.
Assay [2] has as its system HCT-15 colon.
The test system of assay [3] is KM12 colon.
The test system of assay [4] is LOX IMVI melanoma.
Assay [5] concerns M14 melanoma.
For assay [6], the system named is MOLT-4 leukemia.
Assay [7] concerns NCI-H226 lung.
In assay [8] the test system is OVCAR-4 ovarian.
For assay [9], the system named is SNB-75 CNS.
The subject of assay [10] is UACC-257 melanoma.

For `CC(C(=O)c1ccccc1)C1(O)C(=O)Nc2ccccc21` (stereo not given), the TGI in assay [1], in assay [2], in assay [3], in assay [4], in [5] and in assay [6] was above 100 µM each time. Besides, the TGI in assay [7], in assay [8], in [9] and in assay [10] was above 100 µM each time.
As to `CN(C)CCNC1=CC(=O)c2c(O)ccc(O)c2C1=O`, the TGI in assay [1] was 28 µM; in [2] it was above 40.8 µM; in [3], 21.2 µM; in [4], 12.7 µM; in assay [5] it was 12.4 µM; in [6], above 100 µM. The TGI in [7] is 39.8 µM; in [8], 15.7 µM; in assay [9], 31.9 µM; in assay [10] it was 5.61 µM.
With `CCC(O)(c1ccc(OC)cc1)C(c1ccc(OCc2ccccc2)cc1)c1ccc(OCc2ccccc2)cc1` (stereo not given), the TGI in assay [1], in assay [2], in assay [3], in assay [4], in assay [5] and in assay [6] was above 100 µM in each case. Besides, the TGI in [7], in assay [8], in [9] and in assay [10] was above 100 µM in each case.
Consider `CC(=O)O[C@H]1CCC2[C@@H]3CCC4Nc5c(cnn5-c5ccccc5)C[C@]4(C)C3CC[C@@]21C` (stereo not given in full), for which the TGI was above 100 µM in assay [1]; 47.8 µM in [2]; 37.8 µM in [3]; 25.4 µM in assay [4]; 29.9 µM in [5]; 33.7 µM in assay [6]. Also, the TGI amounted to 27.8 µM in [7], 71.3 µM in assay [8], 20.2 µM in [9] and 23.7 µM in assay [10].
For `C=C1SC(=Nc2ccccc2Cl)N(C(=O)c2sc3ccccc3c2Cl)C1(C)C`, the GI50 is 4.04 µM in assay [1]; 4.94 µM in [2]; 4.01 µM in assay [3]; 9.62 µM in [4]; 21 µM in assay [5]; 3.47 µM in [6]. The GI50 is 5.52 µM in assay [7], 5.54 µM in assay [8], 6.41 µM in assay [9] and 29.2 µM in assay [10]. Further, the TGI in assay [1] was above 57.5 µM; in [2], above 57.5 µM; in assay [3], above 51.9 µM; in assay [4] it was above 100 µM; in assay [5] it was above 69.9 µM; in [6], above 25.4 µM. The TGI was above 74.2 µM in assay [7], above 100 µM in assay [8], 97.4 µM in assay [9] and above 100 µM in assay [10].
`CCC(c1ccc(OC)cc1)C(CC)c1ccc(O)c(CN2CCCC2)c1` (stereo not given): the GI50 in [1] is 2.51 µM; in assay [2] it was 3.09 µM; in [3], 3.72 µM; in assay [4] it was 2.04 µM; in assay [5] it was 2.15 µM; in [6] it was 2.54 µM. For the same molecule, the GI50 in [7] is 5.9 µM; in [8] it was 2.54 µM; in assay [9], 3.28 µM; in [10], 2.1 µM. In addition, the TGI in assay [1] was 11.1 µM; in assay [2] it was 10.7 µM; in assay [3] it was 15.3 µM; in assay [4], 4.74 µM; in assay [5], 5.08 µM; in assay [6], 6.77 µM. In addition, the TGI stood at 24.7 µM in [7], 15.2 µM in [8], 15.5 µM in assay [9] and 4.7 µM in assay [10].
With `NNC(=O)CCC(=O)Nc1ccc(Cl)cc1Cl`, the TGI in [1], in assay [2], in assay [3], in [4], in assay [5] and in assay [6] was above 100 µM each time. The TGI in assay [7], in [8], in [9] and in assay [10] was above 100 µM each time.
Regarding `CC(C)NC(=O)OCc1c(COC(=O)NC(C)C)c(-c2ccc[n+](COC(=O)C3CC3)c2)n2c1CCC2`, the TGI is 88.1 µM in assay [1]; above 100 µM in [2]; above 100 µM in assay [3]; above 100 µM in assay [4]; above 100 µM in [5]; above 100 µM in assay [6]. Also, the TGI in assay [7], in [8], in [9] and in assay [10] was above 100 µM throughout.
On to `COc1ccc(CCC(=O)OC(C)[C@H](NC(=O)[C@@H](CC(C)C)N(C)C(=O)[C@@H]2CCCN2C(=O)C(C)O)C(=O)OCc2ccccc2)cc1` (stereo not given in full) (H-[ξLac]P[dNMeL][Thr(3ξ)](Propanoyl(3-(4-MeO-Ph)))-OBn), for which the TGI is above 100 µM in assay [1]; above 100 µM in [2]; 79.4 µM in assay [3]; 41.4 µM in assay [4]; 30.6 µM in assay [5]; 63 µM in assay [6]. Besides, the TGI in assay [7] was 98.3 µM; in assay [8] it was above 100 µM; in assay [9], 45.7 µM; in assay [10], 35.6 µM.
As for `C#Cc1cccc(Nc2ncnc3ccc(-c4cnc(Cl)c(NS(C)(=O)=O)c4)cc23)c1`, the GI50 in [1] was 0.0334 µM; in [2], 0.295 µM; in assay [3], 0.891 µM; in assay [4] it was 0.281 µM; in assay [5], 0.368 µM; in [6] it was 0.244 µM. For the same molecule, the GI50 in assay [7] is 0.564 µM; in [8], 0.762 µM; in assay [9], 0.0101 µM; in assay [10], 0.307 µM. Moreover, the TGI came to 0.254 µM in assay [1]; 1.97 µM in [2]; 2.55 µM in assay [3]; 1.8 µM in assay [4]; 2.41 µM in assay [5]; 1.53 µM in assay [6]. Further, the TGI in assay [7] amounted to 4.3 µM; in assay [8], 8.33 µM; in assay [9], 0.125 µM; in [10], 6.57 µM.

For the origin of these results see PubChem BioAssay (NCI).
